As a reminder, the EC50 is the concentration giving half of the maximal effect.

The record followed here is patent US20260337253A1, “INHIBITION OF GUT BACTERIA” (priority 2025, published 2026).

Non-standard residues stand in square brackets, D forms with d. Residues, ends and D or L forms follow the SMILES beside them. *: point of attachment. boroGlu = O=C(O)CC[C@H](N*)B(O)O; Gly(cPr) = N[C@H](C(=O)O)C1CC1

In this assay the target is His6-CylA-27-412 (Enterococcus faecalis, UniProt A0A2P6AWB8). As to the kind of experiment: In vitro co-operative pore formation assay (pyranine-encapsulated DOPC liposomes, mCylLS:mCylLL). It is filed as biochemical.
Chain of His6-CylA-27-412 (A0A2P6AWB8 entry or part of it): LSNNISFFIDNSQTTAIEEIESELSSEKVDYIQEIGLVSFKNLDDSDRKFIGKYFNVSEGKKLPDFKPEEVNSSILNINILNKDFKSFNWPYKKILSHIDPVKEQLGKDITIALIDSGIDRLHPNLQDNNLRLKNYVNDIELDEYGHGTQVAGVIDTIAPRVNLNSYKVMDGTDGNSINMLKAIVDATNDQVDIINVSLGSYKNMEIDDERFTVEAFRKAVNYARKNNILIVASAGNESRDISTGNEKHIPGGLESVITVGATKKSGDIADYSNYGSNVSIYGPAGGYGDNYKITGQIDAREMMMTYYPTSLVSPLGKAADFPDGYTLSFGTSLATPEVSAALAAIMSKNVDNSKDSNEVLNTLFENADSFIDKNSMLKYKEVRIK

From the text: In vitro pore formation assay for determining inhibitor effectiveness with high sensitivity. The assay uses pore formation as an indicator of toxin maturation. […] Pore formation dissipates a pH gradient between the interior of the liposome and the surrounding buffer increasing pyranine fluorescence.
Within the liposomes was a buffer of lower pH (6.0), and therefore any pore formation or membrane disruption would result in an increase in internal pH, which increases the fluorescence signal of the pyranine. In this way, pyranine fluorescence can be correlated to toxin activation allowing for the determination of EC50 values.
To a well in a black 96-well plate (200 μL) was added 90 μL high pH buffer (5 mM MES, 5 mM Tricine, 5 mM NaCl, pH 7.4) containing CylA (4 nM final concentration). After adding inhibitor, the mixture was incubated at room temperature for 10 min then freshly prepared (no more than 2 days old) pyranine encapsulated DOPC liposomes were added such that the total DOPC concentration was 80 μM. […] The resulting curves were max-min normalized yielding the fraction of permeabilized liposomes. […] This experiment was performed in duplicate or triplicate for each inhibitor at each concentration. […] Errors presented are those calculated by Origin 7 during the fitting process.

In turn, `CC(=O)NCC(=O)N[C@@H](CC(=O)O)C(=O)N[C@H](C(=O)N[C@@H](CCC(N)=O)C(=O)N[C@@H](C)C(=O)N[C@@H](CCC(=O)O)B(O)O)C1CC1` [Compound 9, Ac-Gly-Asp-Cpg-Gln-Ala-Glu-BA] (Ac-GD[Gly(cPr)]QA-boroGlu) returned an EC50 of 12.5 ± 1.4 nM.
